Laboratory results as given in paper PMC12518634, “The noncanonical function of liver-type phosphofructokinase potentiates the efficacy of HDAC inhibitors in cancer” (Signal Transduction and Targeted Therapy, 2025).
Structures can show the parent of a compound that is named as a salt. Where two headings read alike, the source gives them in different places.

Legend:
[1] = tested on: 1405R3; assay: High-throughput drug screen, CellTiter-Glo viability, 72 h; assay type: cell-based, human; set-up: AUC: scale not given here; details: for AUC: area under the dose-response curve; for MIN: lower asymptote of fitted dose-response curve; for SLOPE: slope of fitted dose-response curve; for EC50: CellTiter-Glo viability, 72 h, fitted dose-response curve, Min.Conc.tested 1, Max.Conc.tested 10000, GI50, read-out: EC50
Procedure, shortened: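 Responses are drug sensitivity scores (efficacy cutoff ≥10), fitted from CellTiter-Glo luminescence. Each drug was given at five concentrations (10 to 0.001 μM, tenfold steps) in duplicate for 72 h. Cells were plated at 3000/well 24 h before dosing.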

[2] = tested on: 783C-6; assay: as above; assay type: cell-based, human; set-up: AUC: scale not given here; details: for DSS: DSS of DSRT analysis; for AUC: area under the dose-response curve; for MIN: minimum of dose-response curve; for SLOPE: slope of fitted dose-response curve; for EC50: 72 h, read-out: EC50
Procedure, shortened: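 Cholangiocarcinoma cells were seeded at 3000/well in 384-well plates and dosed after 24 h. Drugs were tested at 10, 1, 0.1, 0.01 and 0.001 μM in duplicate for 72 h, with viability read by CellTiter-Glo luminescence.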

[3] = 1405R3 DSRT analysis, drug sensitivity score
[4] = 783C-6 cells, DSRT analysis, CellTiter-Glo viability, concentrations tested 1 to 10000 (unit inferred), GI50
[5] = Homo sapiens, 1405R3 DSRT analysis

Row | SMILES | AUC ([1]; 1405R3 DSRT analysis) | DSS [1, 3] | MIN ([1]; 1405R3 DSRT analysis) | SLOPE ([1]; 1405R3 DSRT analysis) | DSS ([2]; 783C-6 cells) | AUC ([2]; 783C-6 cells) | MIN ([2]; 783C-6 cells) | SLOPE ([2]; 783C-6 cells) | EC50 ([1]; 1405R3 DSRT analysis) | EC50 [2, 4] | EC50 [1, 5] | EC50 ([2]; Homo sapiens) | DSS [1]
1 | CCCCCCCCCCCCCCCCNNC(=O)c1cccs1 [SIS17] | 24.4 | 0 | 84.3 | -0.1 | 0 | 4.7 | 84.4 | -1 | – | – | – | – | –
2 | COc1ccc(N(C)c2nc(C)nc3ccccc23)cc1OCCCC(=O)NO [SKLB-23bb] | 79.5 | 8.2 | 33.2 | -0.8 | 13.8 | 111 | 50 | -2.5 | 731 nM | 60.2 nM | – | – | –
3 | O=C1NC(=O)/C(=C/c2cccc(C(F)(F)F)c2)S1 [SMI-4a] | 0.1 | 0 | 99.6 | -1.3 | 0 | 2.1 | 96.8 | -2.5 | – | – | – | – | –
4 | CCCOc1ccc(/C=C2\SC(=O)NC2=O)cc1 [SMI-16a] | 0.1 | 0 | 100 | -0.1 | 0 | 5.7 | 91.3 | -0.5 | – | – | – | – | –
5 | C/C(=N\NC(=O)c1cccc(S(=O)(=O)N2CCOCC2)c1)c1cc(Cl)ccc1O [SP2509] | 31.9 | 3.1 | 61 | -1.6 | 4.9 | 43.2 | 35 | -2.5 | 1570 nM | 2180 nM | – | – | –
6 | CCCCNNC(=O)c1ccc(-c2cccc(F)c2F)cc1 [SR-4370] | 63.7 | 7.2 | 6.9 | -2.5 | 6.1 | 54.2 | 7.5 | -2.5 | 2080 nM | 2630 nM | – | – | –
7 | CCOC(=O)NCCCC(=O)NCCc1ccccc1 [Santacruzamate A] | 1 | 0 | 92 | -2.5 | 0 | 2.2 | 94.7 | -0.7 | – | – | – | – | –
8 | O=C(CCCCCN1C(=O)c2cccc3cccc(c23)C1=O)NO [Scriptaid] | 77.8 | 9 | 11.5 | – | 8.6 | 74.4 | 3.2 | – | – | – | 1330 nM | 1710 nM | –
9 | NC(=O)C1CCCc2c1[nH]c1ccc(Cl)cc21 (stereo not drawn) [Selisistat] | 1 | 0 | 97.8 | -0.6 | 0 | 11.9 | 93.6 | -0.1 | – | – | – | – | –
10 | O=C(O)CCCc1ccccc1 [Sodium Phenylbutyrate] | 9.3 | 0 | 90.9 | – | 0 | 15 | 91.2 | – | – | – | – | – | –
11 | CCCC(=O)[O-].[Na+] [Sodium butyrate] | 0.1 | 0 | 100 | -0.1 | 0 | 0.1 | 100 | -0.1 | – | – | – | – | –
12 | CNC(=O)c1cc(Oc2ccc(NC(=O)Nc3ccc(Cl)c(C(F)(F)F)c3)cc2)ccn1 [Sorafenib Tosylate] | 36.2 | 3.8 | 14 | – | 3.4 | 31.4 | – | – | – | – | 3940 nM | 2190 nM | –
13 | O=C1CCc2c(ccc3ccccc23)O1 [Splitomicin] | 3.1 | 0 | 95.1 | – | 0 | 7.8 | 95 | – | – | – | – | – | –
14 | O=C(CCCCCCC(=O)NO)NO [Suberohydroxamic acid] | 0.5 | 0 | 98 | – | 0 | 1.4 | 95.2 | – | – | – | – | – | –
15 | Cl.Cn1cc(C(=O)Nc2ccc([C@@H]3C[C@H]3NCC3CC3)cc2)cn1 [T-3775440 HCl] | 0.3 | 0 | 97.3 | -2.5 | 0 | 15 | 90.4 | -0.1 | – | – | – | – | –
16 | C=CC(=O)N1CC[C@H](n2nc(C#Cc3cc(OC)cc(OC)c3)c3c(N)ncnc32)C1 [TAS-120] | 7.2 | 0 | 91.3 | – | 0 | 1.7 | 94.4 | – | – | – | – | – | –

Row | SMILES | AUC ([1]; 1405R3 DSRT analysis) | DSS [1, 3] | MIN ([1]; 1405R3 DSRT analysis) | SLOPE ([1]; 1405R3 DSRT analysis) | DSS ([2]; 783C-6 cells) | AUC ([2]; 783C-6 cells) | MIN ([2]; 783C-6 cells) | SLOPE ([2]; 783C-6 cells) | EC50 ([1]; 1405R3 DSRT analysis) | EC50 [2, 4] | EC50 [1, 5] | EC50 ([2]; Homo sapiens) | DSS [1]
17 | N#Cc1c(-c2ccccc2)cc(-c2cc(Br)ccc2O)[nH]c1=O [TCS PIM-1 1] | 2.3 | 0 | 96.8 | -0.4 | 0 | 5.4 | 92.2 | -0.4 | – | – | – | – | –
18 | CC(C)(CNC(=O)c1cccc(-c2noc(C(F)(F)F)n2)c1)c1coc(-c2ccccc2)n1 [TMP195] | 1.1 | 0 | 97.2 | -0.8 | 0 | 1.4 | 96 | -0.9 | – | – | – | – | –
19 | O=C(NCC1(c2nc(-c3ccccc3)cs2)CCOCC1)c1cccc(-c2noc(C(F)(F)F)n2)c1 [TMP269] | 24.8 | 0 | 87 | -0.2 | 2.5 | 50.1 | 84.2 | -0.3 | – | – | – | – | –
20 | CC(=O)Nc1ccc(C(=O)Nc2ccccc2N)cc1 [Tacedinaline] | 9.7 | 0.6 | 76.8 | – | 0.3 | 7.5 | 82.2 | – | – | – | – | – | –
21 | COc1cccc2c1c(O)c(C(=O)N(C)c1ccc(C(F)(F)F)cc1)c(=O)n2C [Tasquinimod] | 0.1 | 0 | 100 | – | 0 | 1.7 | 96 | – | – | – | – | – | –
22 | CCN(c1cc(-c2ccc(CN3CCOCC3)cc2)cc(C(=O)NCc2c(C)cc(C)[nH]c2=O)c1C)C1CCOCC1 [Tazemetostat] | 12.2 | 0 | 92.1 | – | 0 | 14.4 | 90.7 | – | – | – | – | – | –
23 | CCCCCCCCCCCCCC(=S)NCCCC[C@H](NC(=O)OCc1ccccc1)C(=O)Nc1ccccc1 [Thiomyristoyl] | 18.7 | 0 | 87.9 | -0.1 | 0 | 2.1 | 92.9 | -1 | – | – | – | – | –
24 | Cn1c(CCCCCCC(=O)NO)nc2cc(N(CCCl)CCCl)ccc21 [Tinostamustine] | 56 | 6.3 | 10 | – | 7.1 | 62.6 | 3.7 | – | – | – | 2420 nM | 2260 nM | –
25 | Cc1cc(Nc2cc(N3CCN(C)CC3)nc(Sc3ccc(NC(=O)C4CC4)cc3)n2)[nH]n1 [Tozasertib] | 19.9 | – | 76.4 | – | 4.1 | 41.4 | 78.1 | – | – | – | – | – | 1.8
26 | O=C(CCCCCCC(=O)Nc1ccc([C@H]2O[C@@H](CSc3nc(-c4ccccc4)c(-c4ccccc4)o3)C[C@@H](c3ccc(CO)cc3)O2)cc1)NO [Tubacin] | 41.9 | 0 | 73.1 | – | 0 | 7.2 | 76.2 | – | – | – | – | – | –
27 | CN1CCc2c(c3ccccc3n2Cc2ccc(C(=O)NO)cc2)C1.Cl [Tubastatin A HCl] | 3.3 | 0 | 94.8 | -0.5 | 0 | 2.4 | 92.1 | -1 | – | – | – | – | –
28 | CN1CCc2c(c3ccccc3n2Cc2ccc(C(=O)NO)cc2)C1.O=C(O)C(F)(F)F [Tubastatin A TFA] | 17.4 | 0 | 88.8 | -0.1 | 0 | 24.4 | 86.5 | -0.1 | – | – | – | – | –
29 | CN1CCc2c(c3ccccc3n2Cc2ccc(C(=O)NO)cc2)C1 [Tubastatin A] | 8.2 | 0 | 92.6 | – | 0 | 3.2 | 92.9 | – | – | – | – | – | –
30 | Nc1cc(F)ccc1NC(=O)c1ccc(CNC(=O)/C=C/c2cccnc2)cc1 [Tucidinostat] | 73.3 | 7 | 44 | – | 6.5 | 59.3 | 25.1 | – | – | – | 607 nM | 1660 nM | –
31 | CCCCNNC(=O)c1ccc(Br)cc1 [UF010] | 21.1 | 2 | 67.1 | -2.5 | 2.1 | 22.5 | 74.9 | -2.4 | 2320 nM | 1280 nM | – | – | –
32 | COc1cc2nc(N3CCCC3)nc(NCCCCCN3CCCC3)c2cc1OC [UNC0379] | 39.7 | 1.9 | 76.2 | -0.4 | 3.2 | 30.1 | 55.3 | -2.5 | – | – | – | – | –
